Read-outs that look alike come from different tables or passages of the source.
Columns and labels:
Assay in all cases: microbe, parasite or virus in culture
Type in all cases: cell-based, human immunodeficiency virus type 1 (HIV-1)
wild type HIV-1 = tested on: wild type HIV-1
HIV-1 L1001-K103N = tested on: HIV-1 L1001-K103N
HIV-1 Y181C = tested on: HIV-1 Y181C
HIV-1 Y188L = tested on: HIV-1 Y188L
[1] = Human immunodeficiency virus 1, Hela-JC53, read-out: EC50 WT (nM)
[2] = Human immunodeficiency virus 1, read-out: EC50 L1001-K103N (nM), L1001-K103N mutant
[3] = Human immunodeficiency virus 1, read-out: EC50 Y181C (nM), Y181C mutant
[4] = Human immunodeficiency virus 1, read-out: EC50 Y188L (nM)

## CC(=O)c1cc(C)c(Oc2nc(Nc3ccc(C#N)cc3)nc3cc[nH]c23)c(C)c1 [Cpd 61]
Wild type HIV-1; [1]
  EC50: < 10 nM
HIV-1 L1001-K103N; [2]
  EC50: < 10 nM
HIV-1 Y181C; [3]
  EC50: < 10 nM
HIV-1 Y188L; [4]
  EC50: < 10 nM

## Cc1cc(C2CC2)cc(C)c1Oc1nc(Nc2ccc(C#N)cc2)nc2[nH]ccc12 [Cpd 33]
Wild type HIV-1; [1]
  EC50: < 10 nM
HIV-1 L1001-K103N; [2]
  EC50: 10 to 100 nM
HIV-1 Y181C; [3]
  EC50: 10 to 100 nM
HIV-1 Y188L; [4]
  EC50: 10 to 100 nM

## Cc1ccc(Oc2nc(Nc3ccc(C#N)cc3)nc3[nH]ccc23)c(C)c1 [Cpd 9]
Wild type HIV-1; [1]
  EC50: < 10 nM
HIV-1 L1001-K103N; [2]
  EC50: > 100 nM
HIV-1 Y181C; [3]
  EC50: > 100 nM
HIV-1 Y188L; [4]
  EC50: > 100 nM

## Cc1cc(C)c(Nc2nc(Nc3ccc(C#N)cc3)nc3[nH]ccc23)c(C)c1 [Cpd 4]
Wild type HIV-1; [1]
  EC50: < 10 nM
HIV-1 L1001-K103N; [2]
  EC50: 10 to 100 nM
HIV-1 Y181C; [3]
  EC50: 10 to 100 nM
HIV-1 Y188L; [4]
  EC50: 10 to 100 nM

## Cc1cc(C)c(Oc2nc(Nc3ccc(C#N)cc3)nc3c(Cl)cn(C)c23)c(C)c1 [Cpd 59]
Wild type HIV-1; [1]
  EC50: 10 to 100 nM
HIV-1 L1001-K103N; [2]
  EC50: 10 to 100 nM
HIV-1 Y181C; [3]
  EC50: 10 to 100 nM
HIV-1 Y188L; [4]
  EC50: 10 to 100 nM

## Cc1cc(C)c(Oc2nc(Nc3ccc(C4CC4)cc3)nc3[nH]cnc23)c(C)c1 [Cpd 44]
Wild type HIV-1; [1]
  EC50: 10 to 100 nM
HIV-1 L1001-K103N; [2]
  EC50: > 100 nM
HIV-1 Y181C; [3]
  EC50: > 100 nM
HIV-1 Y188L; [4]
  EC50: > 100 nM

## Cc1cc(C#N)cc(C)c1Oc1nc(Nc2ccc(C#N)cc2)nc2[nH]cnc12 [Cpd 25]
Wild type HIV-1; [1]
  EC50: < 10 nM
HIV-1 L1001-K103N; [2]
  EC50: 10 to 100 nM
HIV-1 Y181C; [3]
  EC50: < 10 nM
HIV-1 Y188L; [4]
  EC50: < 10 nM

## Cc1cc(C#N)cc(C)c1Oc1nc(Nc2ccc(C#N)cc2)nc2c(Cl)cn(Cc3ccccc3)c12 [Cpd 56]
Wild type HIV-1; [1]
  EC50: 10 to 100 nM
HIV-1 L1001-K103N; [2]
  EC50: 10 to 100 nM
HIV-1 Y181C; [3]
  EC50: 10 to 100 nM
HIV-1 Y188L; [4]
  EC50: 10 to 100 nM

## Cc1cc(Br)cc(C)c1Oc1nc(Nc2ccc(C#N)cc2)nc2ccn(Cc3ccccc3)c12 [Cpd 58]
Wild type HIV-1; [1]
  EC50: 10 to 100 nM
HIV-1 L1001-K103N; [2]
  EC50: > 100 nM
HIV-1 Y181C; [3]
  EC50: 10 to 100 nM
HIV-1 Y188L; [4]
  EC50: > 100 nM

## Cc1cc(C)c(Oc2nc(Nc3cccc(C#N)c3)nc3[nH]cnc23)c(C)c1 [Cpd 36]
Wild type HIV-1; [1]
  EC50: < 10 nM
HIV-1 L1001-K103N; [2]
  EC50: > 100 nM
HIV-1 Y181C; [3]
  EC50: 10 to 100 nM
HIV-1 Y188L; [4]
  EC50: > 100 nM

## Cc1cc(C2CC2)cc(C)c1Oc1nc(Nc2ccc(C#N)cc2)nc2ccn(Cc3ccccc3)c12 [Cpd 47]
Wild type HIV-1; [1]
  EC50: 10 to 100 nM
HIV-1 L1001-K103N; [2]
  EC50: > 100 nM
HIV-1 Y181C; [3]
  EC50: 10 to 100 nM
HIV-1 Y188L; [4]
  EC50: > 100 nM

## CCN(c1ccc(C#N)cc1)c1nc(Oc2c(C)cc(C#N)cc2C)c2c(ccn2CC)n1 [Cpd 46]
Wild type HIV-1; [1]
  EC50: > 100 nM
HIV-1 L1001-K103N; [2]
  EC50: > 100 nM
HIV-1 Y181C; [3]
  EC50: > 100 nM
HIV-1 Y188L; [4]
  EC50: > 100 nM

## Cc1cc(C)c(Oc2nc(Nc3ccc(C#N)cc3)nc3c2ncn3C)c(C)c1 [Cpd 45]
Wild type HIV-1; [1]
  EC50: < 10 nM
HIV-1 L1001-K103N; [2]
  EC50: 10 to 100 nM
HIV-1 Y181C; [3]
  EC50: < 10 nM
HIV-1 Y188L; [4]
  EC50: < 10 nM

## Cc1cc(C)c(Oc2nc(Nc3ccc(C#N)cc3)nc3[nH]cnc23)c(C)c1 [Cpd 31]
Wild type HIV-1; read-out: EC50 WT, wild-type HIV-1
  EC50: < 10 nM
HIV-1 L1001-K103N; read-out: EC50 L1001-K103N, L1001-K103N mutant
  EC50: 10 to 100 nM
HIV-1 Y181C; read-out: EC50 Y181C, Y181C mutant
  EC50: 10 to 100 nM
HIV-1 Y188L; read-out: EC50 Y188L, Y188L mutant
  EC50: < 10 nM

## Cc1cc(C#N)cc(C)c1Oc1nc(Nc2ccc(C#N)cc2)nc2ccn(Cc3ccccc3)c12 [Cpd 41]
Wild type HIV-1; [1]
  EC50: < 10 nM
HIV-1 L1001-K103N; [2]
  EC50: 10 to 100 nM
HIV-1 Y181C; [3]
  EC50: < 10 nM
HIV-1 Y188L; [4]
  EC50: 10 to 100 nM

## Cc1cc(C)c(Sc2nc(Nc3ccc(C#N)cc3)nc3c(Br)c[nH]c23)c(C)c1 [Cpd 55]
Wild type HIV-1; [1]
  EC50: < 10 nM
HIV-1 L1001-K103N; [2]
  EC50: > 100 nM
HIV-1 Y181C; [3]
  EC50: 10 to 100 nM
HIV-1 Y188L; [4]
  EC50: 10 to 100 nM

## Cc1cc(C)c(Oc2nc(Nc3ccc(C#N)cc3)nc3cc[nH]c23)c(C)c1 [Cpd 37]
Wild type HIV-1; [1]
  EC50: < 10 nM
HIV-1 L1001-K103N; [2]
  EC50: < 10 nM
HIV-1 Y181C; [3]
  EC50: < 10 nM
HIV-1 Y188L; [4]
  EC50: < 10 nM

## Cc1cc(C#N)cc(C)c1Oc1nc(Nc2ccc(C#N)cc2)nc2[nH]ccc12 [Cpd 3]
Wild type HIV-1; [1]
  EC50: < 10 nM
HIV-1 L1001-K103N; [2]
  EC50: < 10 nM
HIV-1 Y181C; [3]
  EC50: < 10 nM
HIV-1 Y188L; [4]
  EC50: < 10 nM

## Cc1cc(Cl)cc(C)c1Oc1nc(Nc2ccc(C#N)cc2)nc2cc[nH]c12 [Cpd 66]
Wild type HIV-1; [1]
  EC50: < 10 nM
HIV-1 L1001-K103N; [2]
  EC50: < 10 nM
HIV-1 Y181C; [3]
  EC50: < 10 nM
HIV-1 Y188L; [4]
  EC50: < 10 nM

## Cc1cc(Cl)cc(C)c1Oc1nc(Nc2ccc(C#N)cc2)nc2ccn(Cc3ccccc3)c12 [Cpd 63]
Wild type HIV-1; [1]
  EC50: 10 to 100 nM
HIV-1 L1001-K103N; [2]
  EC50: > 100 nM
HIV-1 Y181C; [3]
  EC50: 10 to 100 nM
HIV-1 Y188L; [4]
  EC50: > 100 nM

Reference: patent publication US8227601B2, “Diaryl-purines, azapurines and -deazapurines as non-nucleoside reverse transcriptase inhibitor for treatment of HIV” (priority 2005, dated 2012)
